In ChEMBL document CHEMBL5053543, “Macrocyclic BACE1 inhibitors with hydrophobic cross-linked structures: Optimization of ring size and ring structure” (Bioorg Med Chem, 2021):
pIC50: −log10 of the molar value.

Experiments:
Beta-secretase 1 [1] = target: T1, Beta-secretase 1 (Homo sapiens, UniProt P56817); assay: Inhibition of recombinant BACE1 (unknown origin) using H-Ile-Lys-Thr-Glu-Glu-Ile-Ser-Glu-Val-Asn-Leu-Asp-Ala-Glu-Phe-Arg-His-Asp-Ser-Gly-NH2 peptide as substrate measured after 90 mins by analytical HPLC analysis
Beta-secretase 1 [2] = target: T1, Beta-secretase 1; assay: Inhibition of recombinant BACE1 (unknown origin) at 1500 uM using H-Ile-Lys-Thr-Glu-Glu-Ile-Ser-Glu-Val-Asn-Leu-Asp-Ala-Glu-Phe-Arg-His-Asp-Ser-Gly-NH2 peptide as substrate measured after 90 mins by analytical HPLC analysis relative to control

T1 sequence (P56817 whole entry): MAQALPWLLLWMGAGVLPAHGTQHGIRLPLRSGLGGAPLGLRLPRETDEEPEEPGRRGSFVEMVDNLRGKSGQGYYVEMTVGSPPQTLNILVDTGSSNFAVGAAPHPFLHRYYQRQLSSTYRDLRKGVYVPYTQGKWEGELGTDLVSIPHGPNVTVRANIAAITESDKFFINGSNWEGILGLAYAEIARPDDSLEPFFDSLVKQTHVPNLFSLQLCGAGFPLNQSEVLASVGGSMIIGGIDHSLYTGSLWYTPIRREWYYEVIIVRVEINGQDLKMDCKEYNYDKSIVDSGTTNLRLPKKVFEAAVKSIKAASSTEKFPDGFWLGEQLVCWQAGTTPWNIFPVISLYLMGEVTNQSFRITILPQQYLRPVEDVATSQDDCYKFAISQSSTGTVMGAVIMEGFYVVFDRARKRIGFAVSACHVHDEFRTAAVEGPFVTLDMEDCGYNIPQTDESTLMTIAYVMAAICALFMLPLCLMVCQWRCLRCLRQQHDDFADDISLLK

A pIC50 (Beta-secretase 1 [1]) of less than 2.82 and an inhibition (Beta-secretase 1 [2]) of 20% were found for `CCC[C@@H]1NC(=O)[C@@H](NC(=O)[C@@H](N)CCC(=O)O)COC/C=C/CC[C@@H]([C@H](O)CNc2ccc(C)cc2)NC1=O` in this work.

A pIC50 (Beta-secretase 1 [1]) of 3.00 was found for `CCC[C@@H]1NC(=O)[C@@H](NC(=O)[C@@H](N)CCC(=O)O)[C@H](C)OC/C=C/C[C@@H]([C@H](O)CNc2ccc(C)cc2)NC1=O` in this work.

A pIC50 (Beta-secretase 1 [1]) of 3.00 was found for `CCC[C@@H]1NC(=O)[C@@H](NC(=O)[C@@H](N)CCC(=O)O)[C@@H](C)OCCCC[C@@H]([C@H](O)CNc2ccc(C)cc2)NC1=O` in this work.

A pIC50 (Beta-secretase 1 [1]) of 2.85 was found for `CCC[C@@H]1NC(=O)[C@@H](NC(=O)[C@@H](N)CCC(=O)O)CCCCC[C@@H]([C@H](O)CNc2ccc(C)cc2)NC1=O` in this work.

A pIC50 (Beta-secretase 1 [1]) of less than 2.82 and an inhibition (Beta-secretase 1 [2]) of 20% were found for `CCC[C@@H]1NC(=O)[C@@H](NC(=O)[C@@H](N)CCC(=O)O)COCCCCC[C@@H]([C@H](O)CNc2ccc(C)cc2)NC1=O` in this work.

A pIC50 (Beta-secretase 1 [1]) of 3.11 was found for `CCC[C@@H]1NC(=O)[C@@H](NC(=O)[C@@H](N)CCC(=O)O)CCCCCC[C@@H]([C@H](O)CNc2ccc(C)cc2)NC1=O` in this work.

A pIC50 (Beta-secretase 1 [1]) of 5.80 was found for `CCC[C@@H]1NC(=O)[C@@H](NC(=O)[C@@H](N)CCC(=O)O)C(C)(C)OCCCC[C@@H]([C@H](O)CNc2ccc(CC(=O)O)cc2)NC1=O` in this work.

A pIC50 (Beta-secretase 1 [1]) of less than 2.82 and an inhibition (Beta-secretase 1 [2]) of 20% were found for `CCC[C@@H]1NC(=O)[C@@H](NC(=O)[C@@H](N)CCC(=O)O)C/C=C/CC[C@@H]([C@H](O)CNc2ccc(C)cc2)NC1=O` in this work.

A pIC50 (Beta-secretase 1 [1]) of 5.21 was found for `CCC[C@@H]1NC(=O)[C@@H](NC(=O)[C@@H](N)CCC(=O)O)C(C)(C)OCCCC[C@@H]([C@H](O)CNc2ccc(C)cc2)NC1=O` in this work.

A pIC50 (Beta-secretase 1 [1]) of 5.41 was found for `CCC[C@@H]1NC(=O)[C@@H](NC(=O)[C@@H](N)CCC(=O)O)C(C)(C)OC/C=C\C[C@@H]([C@H](O)CNc2ccc(C)cc2)NC1=O` in this work.

A pIC50 (Beta-secretase 1 [1]) of 5.21 was found for `CCC[C@H](NC(=O)[C@@H](NC(=O)[C@@H](N)CCC(=O)O)[C@@H](C)CC)C(=O)N[C@@H](CC(C)C)[C@H](O)CNc1ccc(C)cc1` in this work.

A pIC50 (Beta-secretase 1 [1]) of 2.98 was found for `CCC[C@@H]1NC(=O)[C@@H](NC(=O)[C@@H](N)CCC(=O)O)C/C=C\CC[C@@H]([C@H](O)CNc2ccc(C)cc2)NC1=O` in this work.

A pIC50 (Beta-secretase 1 [1]) of 5.92 was found for `CCC[C@@H]1NC(=O)[C@@H](NC(=O)[C@@H](N)CCC(=O)O)C(C)(C)OC/C=C\C[C@@H]([C@H](O)CNc2ccc(CC(=O)O)cc2)NC1=O` in this work.

A pIC50 (Beta-secretase 1 [1]) of 3.93 was found for `CCC[C@@H]1NC(=O)[C@@H](NC(=O)[C@@H](N)CCC(=O)O)[C@@H](C)OC/C=C\C[C@@H]([C@H](O)CNc2ccc(C)cc2)NC1=O` in this work.

A pIC50 (Beta-secretase 1 [1]) of 3.87 was found for `CCC[C@@H]1NC(=O)[C@@H](NC(=O)[C@@H](N)CCC(=O)O)[C@H](C)OCCCC[C@@H]([C@H](O)CNc2ccc(C)cc2)NC1=O` in this work.

A pIC50 (Beta-secretase 1 [1]) of 4.93 was found for `CCC[C@@H]1NC(=O)[C@@H](NC(=O)[C@@H](N)CCC(=O)O)[C@H](C)OC/C=C\C[C@@H]([C@H](O)CNc2ccc(C)cc2)NC1=O` in this work.

A pIC50 (Beta-secretase 1 [1]) of 3.42 was found for `CCC[C@@H]1NC(=O)[C@@H](NC(=O)[C@@H](N)CCC(=O)O)CC/C=C/CC[C@@H]([C@H](O)CNc2ccc(C)cc2)NC1=O` in this work.

A pIC50 (Beta-secretase 1 [1]) of less than 2.82 and an inhibition (Beta-secretase 1 [2]) of 20% were found for `CCC[C@@H]1NC(=O)[C@@H](NC(=O)[C@@H](N)CCC(=O)O)COC/C=C\CC[C@@H]([C@H](O)CNc2ccc(C)cc2)NC1=O` in this work.

A pIC50 (Beta-secretase 1 [1]) of 2.85 was found for `CCC[C@@H]1NC(=O)[C@@H](NC(=O)[C@@H](N)CCC(=O)O)[C@@H](C)OC/C=C/C[C@@H]([C@H](O)CNc2ccc(C)cc2)NC1=O` in this work.

A pIC50 (Beta-secretase 1 [1]) of 2.85 was found for `CCC[C@@H]1NC(=O)[C@@H](NC(=O)[C@@H](N)CCC(=O)O)CC/C=C\CC[C@@H]([C@H](O)CNc2ccc(C)cc2)NC1=O` in this work.
